Laboratory results reported in patent publication US20220306659A1, “COMPOUND INHIBITING AND INDUCING DEGRADATION OF EGFR AND ALK” (BEIJING TIDE PHARMACEUTICAL CO., LTD., priority 2019, published 2022).

Tests used:
[1] = target: Ba/F3(EGFR^Del19/T790M/C797S) cells (Homo sapiens, UniProt P00533, DEL746-750/T790M/C797S, cells depend on it); test: Assay of activity on Ba/F3 cells (CTG, 72 h); assay type: cell-based; settings: read-out: IC50 (nM) Ba/F3 (EGFR^Del19/T790M/C797S)
Method in brief: (§1)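 Ba/F3 cells dependent on each EGFR triple mutant were exposed to 3-fold compound dilutions for 72 h at 37° C, 5% CO2, with CellTiter-Glo luminescence as the read-out.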

[2] = target: Ba/F3(EGFR^L858R/T790M/C797S) cells (Homo sapiens, UniProt P00533, T790M/C797S/L858R, cells depend on it); test: Assay of activity on Ba/F3 cells (CTG, 72 h); assay type: cell-based; settings: read-out: IC50 (nM) Ba/F3 (EGFR^L858R/T790M/C797S)
Chain of Ba/F3(EGFR^L858R/T790M/C797S) cells (P00533 whole entry T790M/C797S/L858R): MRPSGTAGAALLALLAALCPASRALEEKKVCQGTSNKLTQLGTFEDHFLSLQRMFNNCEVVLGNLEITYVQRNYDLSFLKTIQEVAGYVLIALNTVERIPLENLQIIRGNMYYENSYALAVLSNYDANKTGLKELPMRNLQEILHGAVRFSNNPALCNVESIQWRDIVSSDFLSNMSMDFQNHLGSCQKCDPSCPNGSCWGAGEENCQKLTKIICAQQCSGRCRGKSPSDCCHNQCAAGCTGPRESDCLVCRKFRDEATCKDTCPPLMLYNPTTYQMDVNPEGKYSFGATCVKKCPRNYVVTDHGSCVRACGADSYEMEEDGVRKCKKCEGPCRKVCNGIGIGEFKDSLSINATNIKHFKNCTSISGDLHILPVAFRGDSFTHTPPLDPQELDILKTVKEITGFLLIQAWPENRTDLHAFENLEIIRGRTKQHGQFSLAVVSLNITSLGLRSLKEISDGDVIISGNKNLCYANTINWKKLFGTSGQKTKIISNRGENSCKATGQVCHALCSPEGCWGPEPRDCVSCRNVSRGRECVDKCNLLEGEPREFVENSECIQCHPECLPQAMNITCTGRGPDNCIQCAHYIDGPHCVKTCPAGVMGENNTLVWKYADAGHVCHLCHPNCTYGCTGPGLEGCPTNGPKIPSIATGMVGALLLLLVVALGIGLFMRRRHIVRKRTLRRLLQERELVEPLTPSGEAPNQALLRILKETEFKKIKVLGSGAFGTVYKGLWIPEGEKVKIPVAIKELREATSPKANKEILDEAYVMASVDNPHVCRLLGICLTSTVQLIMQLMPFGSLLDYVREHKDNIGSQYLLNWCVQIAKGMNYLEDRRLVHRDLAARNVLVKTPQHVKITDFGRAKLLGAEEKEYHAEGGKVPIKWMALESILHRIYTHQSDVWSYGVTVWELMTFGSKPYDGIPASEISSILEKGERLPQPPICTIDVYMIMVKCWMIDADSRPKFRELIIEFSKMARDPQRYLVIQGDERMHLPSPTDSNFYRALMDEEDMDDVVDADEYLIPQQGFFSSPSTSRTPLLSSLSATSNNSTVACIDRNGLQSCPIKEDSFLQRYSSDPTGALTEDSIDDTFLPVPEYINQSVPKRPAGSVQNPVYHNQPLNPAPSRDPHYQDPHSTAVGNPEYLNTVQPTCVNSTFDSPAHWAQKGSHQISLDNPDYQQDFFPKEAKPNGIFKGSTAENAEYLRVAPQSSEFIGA
Method in brief: as §1

Ba/F3(EML4-ALK) cells = target: T1, Ba/F3(EML4-ALK) cells (Homo sapiens, UniProt Q9UM73); test: Assay of activity on Ba/F3(EML4-ALK) cells (CTG, 72 h); assay type: cell-based; settings: read-out: IC50 (nM) Ba/F3(EML4-ALK)
T1 construct: fused on or other part: Q9HC35 (Echinoderm microtubule-associated protein-like 4)
T1 sequence (Q9UM73 whole entry, change not shown, the tested form may be a part): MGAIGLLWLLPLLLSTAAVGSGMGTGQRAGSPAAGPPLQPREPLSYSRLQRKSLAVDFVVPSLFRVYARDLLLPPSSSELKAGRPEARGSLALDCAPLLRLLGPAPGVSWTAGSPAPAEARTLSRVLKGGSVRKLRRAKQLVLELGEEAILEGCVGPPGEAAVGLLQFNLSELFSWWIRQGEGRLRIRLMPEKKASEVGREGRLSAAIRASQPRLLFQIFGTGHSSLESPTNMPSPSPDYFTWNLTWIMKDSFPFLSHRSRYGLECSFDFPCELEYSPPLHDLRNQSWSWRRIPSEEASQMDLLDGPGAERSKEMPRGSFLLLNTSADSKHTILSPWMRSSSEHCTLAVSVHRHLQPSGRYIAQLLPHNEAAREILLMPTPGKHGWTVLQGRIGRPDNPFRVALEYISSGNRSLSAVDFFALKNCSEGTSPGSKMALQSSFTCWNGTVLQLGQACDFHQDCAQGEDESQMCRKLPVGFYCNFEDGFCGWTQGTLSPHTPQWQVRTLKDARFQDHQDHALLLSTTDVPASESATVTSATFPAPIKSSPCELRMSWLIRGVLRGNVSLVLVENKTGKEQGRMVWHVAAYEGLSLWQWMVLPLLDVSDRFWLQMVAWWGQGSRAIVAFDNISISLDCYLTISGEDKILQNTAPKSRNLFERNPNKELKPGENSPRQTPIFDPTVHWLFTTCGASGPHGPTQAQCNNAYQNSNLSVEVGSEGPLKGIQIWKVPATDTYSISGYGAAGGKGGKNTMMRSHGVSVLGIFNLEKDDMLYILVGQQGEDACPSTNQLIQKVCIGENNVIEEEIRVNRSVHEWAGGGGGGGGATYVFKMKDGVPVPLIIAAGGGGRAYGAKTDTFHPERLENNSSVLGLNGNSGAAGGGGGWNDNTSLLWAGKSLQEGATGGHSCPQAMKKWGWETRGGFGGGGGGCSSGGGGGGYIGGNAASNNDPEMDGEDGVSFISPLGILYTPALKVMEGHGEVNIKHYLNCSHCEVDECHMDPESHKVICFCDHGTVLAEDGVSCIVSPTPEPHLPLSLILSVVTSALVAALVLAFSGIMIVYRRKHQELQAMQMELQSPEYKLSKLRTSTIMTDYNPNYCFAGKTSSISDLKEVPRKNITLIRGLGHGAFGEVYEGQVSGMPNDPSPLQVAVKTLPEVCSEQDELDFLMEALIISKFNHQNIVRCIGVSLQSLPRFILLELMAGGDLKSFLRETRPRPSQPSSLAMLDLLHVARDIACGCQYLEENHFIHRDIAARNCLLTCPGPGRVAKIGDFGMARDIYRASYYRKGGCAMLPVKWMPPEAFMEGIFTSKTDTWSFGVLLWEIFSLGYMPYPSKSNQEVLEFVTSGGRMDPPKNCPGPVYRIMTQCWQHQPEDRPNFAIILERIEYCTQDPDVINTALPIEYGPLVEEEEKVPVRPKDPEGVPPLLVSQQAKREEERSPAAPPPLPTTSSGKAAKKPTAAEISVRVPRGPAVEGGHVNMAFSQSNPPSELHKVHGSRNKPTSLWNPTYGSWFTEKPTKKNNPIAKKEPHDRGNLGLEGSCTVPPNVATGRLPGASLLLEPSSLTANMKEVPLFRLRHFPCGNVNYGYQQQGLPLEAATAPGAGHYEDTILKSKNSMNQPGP
Method: Assay of activity on Ba/F3(EML4-ALK) cells
(1) Ba/F3(EML4-ALK) cells were cultured according to the requirements of ATCC, incubated in an incubator at 37° C. and 5% CO2, and analyzed by index; cells with viability of >90% can be used in the assay, and cells were seeded in a 384-well plate (PerkinElmer, 6007680) with 700 cells/well, 30 μl/well.
(2) A compound stock solution was prepared, and diluted 3× to obtain a compound dilution; 30 nL of the serial dilution was added to a 384-well plate (784075, Greiner) by Echo 550, and cells were incubated in an incubator at 37° C. and 5% CO2 for 72 h.
(3) 30 μL of CTG was added to each well, and the 384-well plate was shaken on a Plate shaker (QILINBEIER, QB-9002); the 384-well plate was incubated in the dark at 37° C. and 5% CO2 for 30 min, and the chemiluminescence value was read by Envision (PerkinElmer, EnVision 2104).
The percent inhibition rate (% inhibition) was calculated by the formula below
LUMcmpd: Luminescence value of assay compound.
LUMpositive: Average LUM value of positive drug at a concentration of 10 μM.
LUM^vehicle: Average LUM value of negative control group without drug treatment.
(§2) The nonlinear regression curve (dose response-variable slope) between the value of inhibition rate (%) and the logarithm of compound concentration was fitted with graphpad prism 8.0, the effect dose curve of compound was drawn, and the IC50 value was calculated.
Y=Bottom+(Top−Bottom)/(1+10^((LogIC50−X)*HillSlope))
X-axis: logarithm of compound concentration; Y axis: inhibition rate (% inhibition).

EGFR^L858R/T790M/C797S = EGFR^L858R/T790M/C797S (Homo sapiens, UniProt P00533, C797S/L858R/T790M); test: EGFR inhibitory activity assay (TK-substrate-biotin/ATP, 665/615 ratio); assay type: biochemical; settings: kinase inhibition
Method: EGFR Inhibitory Activity Assay
(1) A compound stock solution was prepared and diluted 3× to obtain a compound dilution; 10 nL of the compound dilution was transferred to a 384-well plate (784075, Greiner) by Echo 550;
(2) The plate was sealed, and centrifuged at 1,000 g for 1 min;
(4) 5 μl of the 2×EGFR protein working solution was added to the 384-well plate from step (2), centrifuged at 1,000 g for 30 s, and allowed to stand at room temperature (mixed thoroughly) for 10 min;
(6) 5 µL of the TK-substrate-biotin and ATP (the mixture prepared in step (5)) was added to the 384-well plate from step (4) to initiate the reaction;
(7) The mixture was centrifuged at 1,000 g for 30 s; the plate was sealed, and allowed to stand (and reacted) at room temperature for 40 min;
(8) 4×Sa-XL 665 and TK-antibody-Cryptate were prepared with detection buffer;
(9) 5 µL of the Sa-XL 665 and 5 µL of the TK-antibody-Cryptate were added successively to the 384-well plate from step (7);
(10) The mixture was centrifuged at 1,000 g for 30 s, and allowed to stand (reacted) at room temperature for 1 h;
(11) The fluorescence values were read at 615 nm and 665 nm by enzyme labeling instrument (PerkinElmer, 74785).
The ratio (665/615) of each well was calculated.
Formula of inhibition rate (%): […]
Ratiocmpd: Ratio (665/615) value of assay compound.
Ratiopositive: Average ratio (665/615) value of positive control.
Ratiovehicle: Average ratio (665/615) value of negative control.
as §2

Chain of Ba/F3(EGFR^Del19/T790M/C797S) cells (P00533 with tags, fused parts or gaps DEL746-750/T790M/C797S): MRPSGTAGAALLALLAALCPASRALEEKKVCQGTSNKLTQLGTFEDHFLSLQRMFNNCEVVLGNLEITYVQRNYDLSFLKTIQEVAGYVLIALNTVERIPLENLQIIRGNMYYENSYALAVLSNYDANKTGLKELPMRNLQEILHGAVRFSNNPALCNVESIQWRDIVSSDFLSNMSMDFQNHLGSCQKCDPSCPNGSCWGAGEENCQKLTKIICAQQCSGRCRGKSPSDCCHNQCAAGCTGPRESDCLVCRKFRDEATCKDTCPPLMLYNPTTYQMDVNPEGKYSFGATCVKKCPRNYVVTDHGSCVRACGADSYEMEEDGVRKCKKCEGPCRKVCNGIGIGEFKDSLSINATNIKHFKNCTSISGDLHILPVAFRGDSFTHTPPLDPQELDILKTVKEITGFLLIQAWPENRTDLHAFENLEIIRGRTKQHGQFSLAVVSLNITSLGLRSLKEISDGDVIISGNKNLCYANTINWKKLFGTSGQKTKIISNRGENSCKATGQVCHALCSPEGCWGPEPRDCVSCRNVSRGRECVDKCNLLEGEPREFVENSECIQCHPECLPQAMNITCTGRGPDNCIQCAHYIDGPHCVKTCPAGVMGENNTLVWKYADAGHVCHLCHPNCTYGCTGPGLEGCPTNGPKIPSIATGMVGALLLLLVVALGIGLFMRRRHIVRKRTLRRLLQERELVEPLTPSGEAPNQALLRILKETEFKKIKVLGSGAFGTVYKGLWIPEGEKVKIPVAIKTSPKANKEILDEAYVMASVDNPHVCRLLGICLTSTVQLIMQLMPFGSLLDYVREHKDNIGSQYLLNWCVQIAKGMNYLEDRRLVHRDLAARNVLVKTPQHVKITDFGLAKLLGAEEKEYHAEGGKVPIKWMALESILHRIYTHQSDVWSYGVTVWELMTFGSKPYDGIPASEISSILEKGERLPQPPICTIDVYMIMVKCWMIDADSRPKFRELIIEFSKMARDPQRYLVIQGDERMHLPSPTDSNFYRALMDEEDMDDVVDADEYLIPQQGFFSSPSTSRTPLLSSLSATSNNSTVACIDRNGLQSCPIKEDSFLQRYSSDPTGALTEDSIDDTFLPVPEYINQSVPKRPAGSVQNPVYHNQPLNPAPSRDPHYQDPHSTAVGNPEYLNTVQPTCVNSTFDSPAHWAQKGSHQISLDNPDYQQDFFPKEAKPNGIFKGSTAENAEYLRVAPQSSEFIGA

`COc1cc(N2CCC3(CCN(CCCCCCCOc4cccc5c4C(=O)N(C4CCC(=O)NC4=O)C5=O)CC3)CC2)c(C)cc1Nc1ncc(Br)c(Nc2ccc3nccnc3c2P(C)(C)=O)n1` (centres unmarked) [Compound C47, 4-((7-(9-(4-((5-bromo-4-((5-(dimethylphosphoryl)quinoxalin-6-yl)amino)pyrimidin-2-yl)amino)-5-methoxy-2-methylphenyl)-3,9-diazaspiro[5.5]undecan-3-yl)heptyl)oxy)-2-(2,6-dioxopiperidin-3-yl)isoindoline-1,3-dione] gave a GI50 [1] of 101 to 200 nM, a GI50 [2] of 101 to 200 nM and a GI50 (Ba/F3(EML4-ALK) cells) of 101 to 200 nM.

In the case of `COc1cc(N2CCC(N3CCN(CCCCCCCOc4cccc5c4C(=O)N(C4CCC(=O)NC4=O)C5=O)CC3)CC2)c(C)cc1Nc1ncc(Br)c(Nc2ccc3nccnc3c2P(C)(C)=O)n1` (centres unmarked) [Compound C158, 4-((7-(4-(1-(4-((5-bromo-4-((5-(dimethylphosphoryl)quinoxalin-6-yl)amino)pyrimidin-2-yl)amino)-5-methoxy-2-methylphenyl)piperidin-4-yl)piperazin-1-yl)heptyl)oxy)-2-(2,6-dioxopiperidin-3-yl)isoindoline-1,3-dione], the GI50 [1] is reported as 1 to 100 nM, the GI50 [2] is reported as 101 to 200 nM and the GI50 (Ba/F3(EML4-ALK) cells) is reported as 201 to 300 nM.

`[2H]C([2H])(CCCCCCOc1cccc2c1C(=O)N(C1CCC(=O)NC1=O)C2=O)N1CCN(C2CCN(c3ccc(Nc4ncc(Cl)c(Nc5ccccc5P(C)(C)=O)n4)c(OC)c3)CC2)CC1` (centres unmarked) [Compound C164, 4-((7-(4-(1-(4-((5-chloro-4-((2-(dimethylphosphoryl)phenyl)amino)pyrimidin-2-yl)amino)-3-methoxyphenyl)piperidin-4-yl)piperazin-1-yl)heptyl-7,7-dideuterium)oxy)-2-(2,6-dioxopiperidin-3-yl)isoindoline-1,3-dione] showed an IC50 (EGFR^L858R/T790M/C797S) of 1 to 100 nM, a GI50 [1] of 1 to 100 nM and a GI50 (Ba/F3(EML4-ALK) cells) of 1 to 100 nM.

In the case of `COc1cc(N2CCC(N3CCN(CCCCCCCC#Cc4cccc5c4CN(C4CCC(=O)NC4=O)C5=O)CC3)CC2)c(C)cc1Nc1ncc(Br)c(Nc2ccc3nccnc3c2P(C)(C)=O)n1` (centres unmarked) [Compound C183, 3-(4-(9-(4-(1-(4-((5-bromo-4-((5-(dimethylphosphoryl)quinoxalin-6-yl)amino)pyrimidin-2-yl)amino)-5-methoxy-2-methylphenyl)piperidin-4-yl)piperazin-1-yl)non-1-yn-1-yl)-1-oxoisoindolin-2-yl)piperidine-2,6-dione], the GI50 [1] is reported as 1 to 100 nM, the GI50 [2] is reported as 1 to 100 nM and the GI50 (Ba/F3(EML4-ALK) cells) is reported as 1 to 100 nM.

Work on `COc1cc(N2CCC(N3CCN(CCCCCCCCC#Cc4cccc5c4CN(C4CCC(=O)NC4=O)C5=O)CC3)CC2)c(C)cc1Nc1ncc(Br)c(Nc2ccc3nccnc3c2P(C)(C)=O)n1` (centres unmarked) [Compound C188, 3-(4-(10-(4-(1-(4-((5-bromo-4-((5-(dimethylphosphoryl)quinoxalin-6-yl)amino)pyrimidin-2-yl)amino)-5-methoxy-2-methylphenyl)piperidin-4-yl)piperazin-1-yl)dec-1-yn-1-yl)-1-oxoisoindolin-2-yl)piperidine-2,6-dione] yielded a GI50 [1] of 1 to 100 nM and a GI50 (Ba/F3(EML4-ALK) cells) of over 300 nM.

In the case of `COc1cc(N2CCC3(CCN(CCCCCCCCC#Cc4cccc5c4CN(C4CCC(=O)NC4=O)C5=O)CC3)CC2)c(C)cc1Nc1ncc(Br)c(Nc2ccc3nccnc3c2P(C)(C)=O)n1` (centres unmarked) [Compound C189, 3-(4-(10-(9-(4-((5-bromo-4-((5-(dimethylphosphoryl)quinoxalin-6-yl)amino)pyrimidin-2-yl)amino)-5-methoxy-2-methylphenyl)-3,9-diazaspiro[5.5]undecan-3-yl)dec-1-yn-1-yl)-1-oxoisoindolin-2-yl)piperidine-2,6-dione], the GI50 [1] is reported as 1 to 100 nM and the GI50 (Ba/F3(EML4-ALK) cells) is reported as 101 to 200 nM.

`COc1cc(N2CCC3(CCN(CCCCCC#Cc4ccc5c(c4)CN(C4CCC(=O)NC4=O)C5=O)CC3)CC2)c(C)cc1Nc1ncc(Br)c(Nc2ccc3nccnc3c2P(C)(C)=O)n1` (centres unmarked) [Compound C191, 3-(5-(7-(9-(4-((5-bromo-4-((5-(dimethylphosphoryl)quinoxalin-6-yl)amino)pyrimidin-2-yl)amino)-5-methoxy-2-methylphenyl)-3,9-diazaspiro[5.5]undecan-3-yl)hept-1-yn-1-yl)-1-oxoisoindolin-2-yl)piperidine-2,6-dione] was tested, and the GI50 [1] was 1 to 100 nM and the GI50 (Ba/F3(EML4-ALK) cells) was 101 to 200 nM.

With `COc1cc(N2CCC(N3CCN(CCCCCCCC#Cc4ccc5c(c4)CN(C4CCC(=O)NC4=O)C5=O)CC3)CC2)ccc1Nc1ncc(Cl)c(Nc2ccccc2P(C)(C)=O)n1` (centres unmarked) [Compound C195, 3-(5-(9-(4-(1-(4-((5-chloro-4-((2-(dimethylphosphoryl)phenyl)amino)pyrimidin-2-yl)amino)-3-methoxyphenyl)piperidin-4-yl)piperazin-1-yl)non-1-yn-1-yl)-1-oxoisoindolin-2-yl)piperidine-2,6-dione] the GI50 [1] was 1 to 100 nM and the GI50 (Ba/F3(EML4-ALK) cells) was 1 to 100 nM.

With `COc1cc(N2CCC(N3CCN(CCCCCCCCC#Cc4ccc5c(c4)CN(C4CCC(=O)NC4=O)C5=O)CC3)CC2)ccc1Nc1ncc(Cl)c(Nc2ccccc2P(C)(C)=O)n1` (centres unmarked) [Compound C196, 3-(5-(10-(4-(1-(4-((5-chloro-4-((2-(dimethylphosphoryl)phenyl)amino)pyrimidin-2-yl)amino)-3-methoxyphenyl)piperidin-4-yl)piperazin-1-yl)dec-1-yn-1-yl)-1-oxoisoindolin-2-yl)piperidine-2,6-dione] the GI50 [1] was 1 to 100 nM and the GI50 (Ba/F3(EML4-ALK) cells) was 1 to 100 nM.

For `COc1cc(N2CCC3(CCN(CCCCCCCOc4cccc5c4CN(C4CCC(=O)NC4=O)C5=O)CC3)CC2)c(C)cc1Nc1ncc(Br)c(Nc2ccc3nccnc3c2P(C)(C)=O)n1` (centres unmarked) [Compound C211, 3-(4-((7-(9-(4-((5-bromo-4-((5-(dimethylphosphoryl)quinoxalin-6-yl)amino)pyrimidin-2-yl)amino)-5-methoxy-2-methylphenyl)-3,9-diazaspiro[5.5]undecan-3-yl)heptyl)oxy)-1-oxoisoindolin-2-yl)piperidine-2,6-dione], the GI50 [1] was 1 to 100 nM and the GI50 (Ba/F3(EML4-ALK) cells) was 1 to 100 nM.

For `COc1cc(N2CCC(N3CCN(CCCCCCCOc4cccc5c4CN(C4CCC(=O)NC4=O)C5=O)CC3)CC2)c(C)cc1Nc1ncc(Br)c(Nc2ccc3nccnc3c2P(C)(C)=O)n1` (centres unmarked) [Compound C214, 3-(4-((7-(4-(1-(4-((5-bromo-4-((5-(dimethylphosphoryl)quinoxalin-6-yl)amino)pyrimidin-2-yl)amino)-5-methoxy-2-methylphenyl)piperidin-4-yl)piperazin-1-yl)heptyl)oxy)-1-oxoisoindolin-2-yl)piperidine-2,6-dione], the GI50 [1] was 1 to 100 nM, the GI50 [2] was 1 to 100 nM and the GI50 (Ba/F3(EML4-ALK) cells) was 1 to 100 nM.

Work on `COc1cc(N2CCC3(CCN(CCOCC#Cc4cc(F)cc5c4CN(C4CCC(=O)NC4=O)C5=O)CC3)CC2)c(C)cc1Nc1ncc(Br)c(Nc2ccc3nccnc3c2P(C)(C)=O)n1` (centres unmarked) [Compound C310, 3-(4-(3-(2-(9-(4-((5-bromo-4-((5-(dimethylphosphoryl)quinoxalin-6-yl)amino)pyrimidin-2-yl)amino)-5-methoxy-2-methylphenyl)-3,9-diazaspiro[5.5]undecan-3-yl)ethoxy)prop-1-yn-1-yl)-6-fluoro-1-oxoisoindolin-2-yl)piperidine-2,6-dione] yielded a GI50 [1] of 1 to 100 nM and a GI50 (Ba/F3(EML4-ALK) cells) of 1 to 100 nM.
